Assay results taken from ChEMBL document CHEMBL1122408, “Pyridinylpiperazines, a new class of selective alpha 2-adrenoceptor antagonists” (J Med Chem, 1983).

Experiments:
[1] = molecular target: T1, Adrenergic receptor alpha-2 (Rattus norvegicus, UniProt P22086+P19328+P22909); test: Presynaptic antagonistic activity against alpha-2 adrenergic receptor from rat, isolated, field-stimulated vas deferens, using clonidine as the agonist; format: functional
T1 sequence (P22086 whole entry): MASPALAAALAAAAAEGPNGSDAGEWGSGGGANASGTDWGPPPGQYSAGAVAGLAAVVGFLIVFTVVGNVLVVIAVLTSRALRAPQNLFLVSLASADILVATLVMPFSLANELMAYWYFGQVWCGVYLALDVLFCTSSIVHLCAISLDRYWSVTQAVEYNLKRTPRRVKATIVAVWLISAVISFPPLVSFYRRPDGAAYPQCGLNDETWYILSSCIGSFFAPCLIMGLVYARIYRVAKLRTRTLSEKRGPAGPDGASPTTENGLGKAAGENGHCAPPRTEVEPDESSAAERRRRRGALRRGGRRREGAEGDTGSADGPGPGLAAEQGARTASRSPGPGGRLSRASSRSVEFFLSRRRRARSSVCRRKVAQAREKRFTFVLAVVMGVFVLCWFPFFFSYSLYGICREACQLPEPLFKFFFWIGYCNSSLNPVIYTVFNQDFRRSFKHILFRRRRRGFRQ
T1 sequence (P19328 whole entry): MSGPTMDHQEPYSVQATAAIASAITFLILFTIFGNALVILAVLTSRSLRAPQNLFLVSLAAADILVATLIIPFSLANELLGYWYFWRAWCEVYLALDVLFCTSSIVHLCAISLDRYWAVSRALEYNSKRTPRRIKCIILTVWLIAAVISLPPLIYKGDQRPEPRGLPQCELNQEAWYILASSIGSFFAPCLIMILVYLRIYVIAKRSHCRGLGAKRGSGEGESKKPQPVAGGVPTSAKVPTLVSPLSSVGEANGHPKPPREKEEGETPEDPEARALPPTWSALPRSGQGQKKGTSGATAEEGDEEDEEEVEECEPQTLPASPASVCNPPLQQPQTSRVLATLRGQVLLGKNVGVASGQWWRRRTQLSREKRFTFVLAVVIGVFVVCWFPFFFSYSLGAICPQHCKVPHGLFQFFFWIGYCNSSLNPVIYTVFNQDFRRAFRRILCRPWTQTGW
T1 sequence (P22909 whole entry): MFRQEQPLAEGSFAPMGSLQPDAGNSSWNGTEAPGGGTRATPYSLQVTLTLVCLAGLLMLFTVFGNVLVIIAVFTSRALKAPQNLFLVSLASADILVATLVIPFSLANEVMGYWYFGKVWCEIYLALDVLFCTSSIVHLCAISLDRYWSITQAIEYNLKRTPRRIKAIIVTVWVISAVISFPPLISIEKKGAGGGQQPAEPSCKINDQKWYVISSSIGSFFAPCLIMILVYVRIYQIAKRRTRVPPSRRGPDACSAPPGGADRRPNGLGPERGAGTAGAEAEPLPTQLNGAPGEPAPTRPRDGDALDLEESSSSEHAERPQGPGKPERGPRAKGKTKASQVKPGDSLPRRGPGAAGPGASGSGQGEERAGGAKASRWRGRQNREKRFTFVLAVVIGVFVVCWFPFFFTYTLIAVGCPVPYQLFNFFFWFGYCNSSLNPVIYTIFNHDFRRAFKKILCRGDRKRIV

[2] = molecular target: T2, Alpha-1A adrenergic receptor (Bos taurus, UniProt P18130); test: Binding activity against alpha-1 adrenergic receptor from calf cerebral cortex, using [3H]-prazosin as the radioligand; format: tissue-based
T2 sequence (P18130 whole entry): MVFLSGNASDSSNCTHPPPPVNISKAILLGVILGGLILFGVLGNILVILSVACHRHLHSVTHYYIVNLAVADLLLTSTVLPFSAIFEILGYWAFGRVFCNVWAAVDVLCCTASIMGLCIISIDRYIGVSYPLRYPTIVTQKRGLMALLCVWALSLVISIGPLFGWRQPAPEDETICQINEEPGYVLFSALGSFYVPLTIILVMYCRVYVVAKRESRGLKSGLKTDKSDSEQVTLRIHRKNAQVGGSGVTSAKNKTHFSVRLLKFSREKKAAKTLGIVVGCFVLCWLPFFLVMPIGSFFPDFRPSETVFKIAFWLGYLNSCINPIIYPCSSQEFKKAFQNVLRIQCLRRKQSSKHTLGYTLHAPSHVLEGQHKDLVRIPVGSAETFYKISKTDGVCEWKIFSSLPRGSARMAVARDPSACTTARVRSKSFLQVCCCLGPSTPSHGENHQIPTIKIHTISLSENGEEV

[3] = molecular target: T3, Adrenergic receptor alpha-1 (Rattus norvegicus, UniProt P15823+P23944+P43140); test: Presynaptic antagonistic activity against alpha-1 adrenergic receptor from rat, isolated, field-stimulated vas deferens, using methoxamine as the agonist; format: functional
T3 sequence (P15823 whole entry): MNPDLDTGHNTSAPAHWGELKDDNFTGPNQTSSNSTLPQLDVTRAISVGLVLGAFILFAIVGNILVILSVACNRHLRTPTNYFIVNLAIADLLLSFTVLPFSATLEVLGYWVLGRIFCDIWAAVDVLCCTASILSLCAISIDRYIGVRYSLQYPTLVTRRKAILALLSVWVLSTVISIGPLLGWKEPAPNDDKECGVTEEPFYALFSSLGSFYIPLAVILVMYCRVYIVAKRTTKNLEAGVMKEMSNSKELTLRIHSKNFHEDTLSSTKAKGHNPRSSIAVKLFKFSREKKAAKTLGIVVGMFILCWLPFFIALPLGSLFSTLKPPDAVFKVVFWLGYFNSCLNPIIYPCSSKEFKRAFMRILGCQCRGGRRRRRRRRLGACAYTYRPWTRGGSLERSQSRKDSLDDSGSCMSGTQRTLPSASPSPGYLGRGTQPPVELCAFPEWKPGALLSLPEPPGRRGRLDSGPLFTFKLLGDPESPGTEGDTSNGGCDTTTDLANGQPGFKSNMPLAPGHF
T3 sequence (P23944 whole entry): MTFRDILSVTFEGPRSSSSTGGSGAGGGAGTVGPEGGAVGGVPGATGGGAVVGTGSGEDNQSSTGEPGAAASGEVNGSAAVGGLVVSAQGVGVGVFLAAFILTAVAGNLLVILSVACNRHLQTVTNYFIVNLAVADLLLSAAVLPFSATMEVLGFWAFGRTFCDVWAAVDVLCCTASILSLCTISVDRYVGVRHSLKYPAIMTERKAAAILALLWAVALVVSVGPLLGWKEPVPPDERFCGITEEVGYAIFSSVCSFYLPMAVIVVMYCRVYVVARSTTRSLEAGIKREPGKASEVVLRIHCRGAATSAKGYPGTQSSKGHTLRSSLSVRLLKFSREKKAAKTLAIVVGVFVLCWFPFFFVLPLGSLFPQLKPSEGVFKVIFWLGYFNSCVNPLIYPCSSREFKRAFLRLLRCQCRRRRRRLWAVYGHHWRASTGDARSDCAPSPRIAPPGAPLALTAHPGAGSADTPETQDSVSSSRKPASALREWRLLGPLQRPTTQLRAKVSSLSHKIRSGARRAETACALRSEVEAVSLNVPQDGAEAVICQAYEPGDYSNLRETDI
T3 sequence (P43140 whole entry): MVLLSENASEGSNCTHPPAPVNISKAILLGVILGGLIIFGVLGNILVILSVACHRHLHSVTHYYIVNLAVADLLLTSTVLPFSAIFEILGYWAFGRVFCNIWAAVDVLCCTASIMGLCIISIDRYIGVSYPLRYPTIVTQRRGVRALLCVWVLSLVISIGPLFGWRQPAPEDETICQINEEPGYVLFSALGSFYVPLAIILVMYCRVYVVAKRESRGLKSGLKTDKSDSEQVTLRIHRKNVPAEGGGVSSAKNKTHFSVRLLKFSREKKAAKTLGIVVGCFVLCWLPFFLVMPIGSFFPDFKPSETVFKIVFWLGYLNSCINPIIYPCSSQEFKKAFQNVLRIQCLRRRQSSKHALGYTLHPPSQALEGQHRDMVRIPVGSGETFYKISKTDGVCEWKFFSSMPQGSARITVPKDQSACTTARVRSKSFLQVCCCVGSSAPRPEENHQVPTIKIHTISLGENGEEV

[4] = molecular target: T4, Adrenergic receptor alpha-2 (Rattus norvegicus) (UniProt P22086+P19328+P22909)
[5] = molecular target: T5, Alpha-2A adrenergic receptor (Bos taurus, UniProt Q28838); test: Binding activity against alpha-2 adrenergic receptor from calf cerebral cortex, using [3H]clonidine as the radioligand; format: tissue-based
T5 sequence (Q28838 whole entry): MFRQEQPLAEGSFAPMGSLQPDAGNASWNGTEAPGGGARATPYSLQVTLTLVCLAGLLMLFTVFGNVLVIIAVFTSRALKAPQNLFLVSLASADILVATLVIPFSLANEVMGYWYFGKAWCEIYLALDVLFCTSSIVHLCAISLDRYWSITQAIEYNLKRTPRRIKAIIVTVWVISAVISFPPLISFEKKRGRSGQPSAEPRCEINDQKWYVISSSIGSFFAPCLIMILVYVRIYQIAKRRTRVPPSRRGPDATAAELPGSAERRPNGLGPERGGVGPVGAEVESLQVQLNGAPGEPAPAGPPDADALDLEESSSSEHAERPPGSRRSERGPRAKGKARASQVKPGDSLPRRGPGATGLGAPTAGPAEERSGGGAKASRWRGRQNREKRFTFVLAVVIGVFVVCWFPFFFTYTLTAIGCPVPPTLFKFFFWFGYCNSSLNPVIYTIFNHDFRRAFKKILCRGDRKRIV

[6] = molecular target: T4, Adrenergic receptor alpha-2 (Rattus norvegicus); test: Antagonistic activity against central alpha-2 adrenergic receptor, in anesthetized rats, by reversing the established clonidine-induced mydriasis; 0.3-1; format: functional

SMILES | pA2 [1] | Ki [2] [nM] | pA2 [3] | AD50 [4] [mg/kg] | Ki [5] [nM] | AD50 [6] [mg/kg]
Clc1cccnc1N1CCNCC1 | 6.9 | 1800 | 5.7 | 0.44 | – | –
c1ccc2c(c1)OCC(C1=NCCN1)O2 (stereo unspecified) [IDAZOXAN] | – | 500 | – | 0.05 | 1.5 | –
CN1CCN(c2ncccc2F)CC1 | 7.4 | 490 | 6.2 | 0.67 | 5 | –
Clc1cnccc1N1CCNCC1 | < 5.8 | 6800 | – | > 3 | 390 | –
NC(=O)c1cccnc1N1CCNCC1 | < 5.8 | 62000 | – | > 3 | 5200 | –
COC(=O)[C@H]1[C@H]2C[C@H]3c4[nH]c5ccccc5c4CCN3C[C@H]2CC[C@@H]1O | – | – | – | 1.1 | – | –
Clc1ccc(N2CCNCC2)nc1 | < 5.8 | 900 | – | > 3 | 1340 | –
Clc1cccc(N2CCNCC2)n1 | 6.8 | 375 | 6 | – | – | 0.3
Brc1cccnc1N1CCNCC1 | 6.6 | 1480 | 5.8 | 0.68 | – | –
Nc1cccnc1N1CCNCC1 | < 5.8 | 31000 | – | > 3 | 440 | –
CN1CCN(c2ncccc2Cl)CC1 | 7.4 | 215 | 6.5 | 0.56 | 2.7 | –
CN1CCN2c3ccccc3Cc3ccccc3C2C1 (stereo unspecified) | – | – | – | > 10 | – | –
Ic1cccnc1N1CCNCC1 | 6.2 | 1600 | 6 | 1.95 | – | –
Clc1ccccc1N1CCNCC1 | 6 | 160 | 6.5 | 1.03 | 25 | –
O=[N+]([O-])c1cccnc1N1CCNCC1 | 6.3 | 3800 | – | 1.53 | 26 | –
CN1CCN(c2ncccc2Br)CC1 | 7.6 | 160 | 6.5 | 0.74 | – | –
Clc1cccnc1N1CCN(Cc2ccccc2)CC1 | 6.5 | 700 | 7 | > 3 | 120 | –
COC(=O)[C@@H]1[C@H]2C[C@H]3c4[nH]c5ccccc5c4CCN3C[C@@H]2CC[C@@H]1O | – | – | – | 1.04 | – | –
FC(F)(F)c1cccnc1N1CCNCC1 | < 5.8 | 2850 | – | 3.63 | 97 | –
Cc1ccnc(N2CCNCC2)c1Cl | 5.9 | 4300 | – | 14 | 74 | –
N#Cc1cccnc1N1CCNCC1 | 6.1 | 2000 | – | 1.07 | 14 | –
Clc1cnc(N2CCNCC2)c(Cl)c1 | < 5.8 | 800 | – | > 3 | 500 | –
Fc1cccnc1N1CCNCC1 | 6.9 | 2500 | 5.18 | 0.23 | 8.2 | –
c1ccc(N2CCNCC2)nc1 | 6.4 | 2400 | 5.7 | 1.28 | – | –
